Values joined by “and” are separate entries in the source; they are usually repeats but may differ in a detail not shown here. Identical values can stand only once. Like-named read-outs stand apart in the source and are kept apart here.
Tests used:
[1] = test system: Y79 human retinoblastoma cell line; experiment: Presto blue cell viability assay in Y79 after 24 hours; type: cell-based; conditions: for IC50: Homo sapiens; for fold increase in cytotoxicity (lower IC50) compared to melphalan / cytotoxicity at the elevated temperature relative to 37 °C: Y79, 24 hours; for fold increase in cytotoxicity (lower IC50) compared to melphalan: 37 °C; for cytotoxicity at the elevated temperature relative to 37 °C: 42 °C for 1 hour vs 37 °C
Description: The IC50 values were determined using the presto blue cell viability assay (Table 1).
(§1) The human retina (RPE1) and retinoblastoma (Y79) cell lines were purchased from ATCC, Switzerland. RPMI 1640, DMEM high glucose Glutamax and DMEM GlutaMAX media were obtained from Life Technologies, and fetal bovine serum (FBS) was obtained from Sigma. Cell culture was performed in RPMI 1640 with 20% FBS and DMEM high glucose Glutamax with 10% FBS for Y79 and RPE1, respectively. Cell passage was performed twice per week using the appropriate medium and the resulting flaks were maintained in a bioincubator (Thermo Scientific, Switzerland) that controlled the humidity and fixed the CO2 rate to 5%. Cell viability tests were conducted in a flat bottomed 96 or 384 well plate using a compound stock solution prepared in dimethyl sulfoxide (DMSO) for all compounds except Cisplatin. The maximum concentration of DMSO in the wells was 0.1% DMSO.
2. Presto Blue cell viability assay in Y79 after 24 hours
The optimization of the starting concentration was carried out for each tested compound after 24 h of incubation. In order to conduct the tests at the mentioned time lapses, Y79’s work cell solutions were prepared at 10 6 cell/mL for the 24 h experiment. The same protocol as described below was used, however in this case, the experiment was conducted […]
3. Presto Blue cell viability assay in Y79 and RPE1 cells at 72 h […]
tests were conducted using cell work solutions at 4x10^5 and 7x10^5 cell/mL respectively and compound stock solutions were prepared at 10 µM in DMSO. The robotic System (Echo 550 […]
LIQUID HANDLER) charged the 384-cell plate with a decreasing volume of each compound’s SS in order to have a concentration gradient that covers 100 to 0.7 µM. DMSO was added to […]
added in the plate using a disperser (Thermo Scientific Multidrop Combi, Switzerland).
(§2) For thermal assays, the plates were placed in a heat chamber at 42 °C for 1 h and then transferred to a bioincubator at 37 °C for 71 h where the control plates were already placed. After 72 h of a total incubation time, […] of presto blue were added to each well and all the plates were incubated for 1 h at 37 °C. For presto blue cell viability assays, gambogic acid was used at 10 µM and represented the positive control, while DMSO at a final concentration of 0.1% presented the negative control. Fluorescence was measured using a […]
(§3) plate reader (Tecan […] F500 reader, Switzerland) at 560 nm for […] and 590 nm for fluorescence. The normalization of the fluorescence’s intensities was conducted with GraphPad software using Gambogic acid and DMSO as positive and negative control, […]

[2] = test system: dsDNA oligonucleotide 5'-AGGCAG-3' (B1) / 3'-TCCGTC-5' (B2); experiment: DNA binding ESI-MS study with model double stranded oligonucleotide; conditions: 37 °C, 48 hours incubation; for adduct formation with the dsDNA oligonucleotide (ESI-MS): 1 : 5 ratio
Description: The resulting solutions were measured by electrospray ionization mass spectrometry (ESI-MS) and the analysis of the spectra[45] is provided in the ESI ^† and summarised in Fig. 2a.
Furthermore, the relative amount of melphalan derivative-bound dsDNA follows the same trend as the toxicity of the compounds. […] The relative amount of these adducts decreases with the chain length, which could be a consequence of the higher hydrophobicity of the compounds and hint at a higher resistance to hydrolysis. […] No crosslinked DNA adducts, known to be relevant hallmarks in the melphalan mechanism of action, were detected, probably due to the difficulty to observe them upon ionization.[47]

[3] = test system: human retinoblastoma cells (Y79); experiment: Presto Blue cell viability assay in Y79 cells at 72 h; type: cell-based
Description: (§4) The cytotoxicity of the two most promising derivatives, i.e.3d and 3e, was subsequently evaluated on human retinoblastoma (Y79) and healthy human retina (RPE1) immortalised cells after 72 hours of incubation in 2D settings under standard conditions, i.e. at 37 °C and 5% CO2, and also under conditions that mimic mild hyperthermia, i.e. at 42 °C for 1 hour followed by 71 hours at 37 °C, respectively, see Table 2.
as §1, with “DMSO. […]” for “DMSO.”
(§5) 3. Presto Blue cell viability assay in Y79 and RPE1 cells at 72 h
(§6) In order to evaluate the cytotoxicity of 3a-3f on Y79 and RPE1 cell lines, cell viability tests were conducted using cell work solutions at 4x10^5 and 7x10^5 cell/mL respectively and compound stock solutions were prepared at 10 µM in DMSO. The robotic System (Echo 550 […]
(§7) LIQUID HANDLER) charged the 384-cell plate with a decreasing volume of each compound’s SS in order to have a concentration gradient that covers 100 to 0.7 µM. DMSO was added to each well so as to have the same final volume of compound’s solution in each well. Cells were added in the plate using a disperser (Thermo Scientific Multidrop Combi, Switzerland).
as §2, §3

[4] = test system: healthy human retina (RPE1) immortalised cells; experiment: Presto Blue cell viability assay in RPE1 cells at 72 h; type: cell-based; conditions: for cytotoxicity to healthy RPE1 cells relative to tumoral Y79 cells (selectivity): 72 hours; for IC50: Homo sapiens, RPE-1
Description: as §4
as §1, with “DMSO. […]” for “DMSO.”
as §5, §6, §7, §2, §3

[5] = test system: myeloma RPMI 8226 cell line; parameters: method as in PMID 32161295; conditions: cited from earlier work
[6] = Y79, 1 hour at 42 °C followed by 23 hours at 37 °C, read-out: IC50 42 °C
[7] = Y79, 24 hours at 37 °C, 5% CO2, read-out: IC50 37 °C
[8] = Y79, 1 hour at 42 °C followed by 71 hours at 37 °C, read-out: Y79 IC50 42 °C
[9] = Y79, 72 hours at 37 °C, read-out: Y79 IC50 37 °C
[10] = RPE1, 1 hour at 42 °C followed by 71 hours at 37 °C, read-out: RPE1 IC50 42 °C
[11] = RPE1, 72 hours at 37 °C, read-out: RPE1 IC50 37 °C

N[C@@H](Cc1ccc(N(CCCl)CCCl)cc1)C(=O)OCCC(F)(F)F [Compound 3a]
IC50 [1, 6]: 1.1 ± 0.1 µM
IC50 [1, 7]: 1.2 ± 0.1 µM

N[C@@H](Cc1ccc(N(CCCl)CCCl)cc1)C(=O)OCCC(F)(F)C(F)(F)F [Compound 3b]
IC50 [1, 6]: 1.8 ± 0.1 µM
IC50 [1, 7]: 2.2 ± 0.1 µM

N[C@@H](Cc1ccc(N(CCCl)CCCl)cc1)C(=O)OCCC(F)(F)C(F)(F)C(F)(F)C(F)(F)F [Compound 3c]
IC50 [1, 6]: 2.1 ± 0.2 µM
IC50 [1, 7]: 3.4 ± 0.2 µM

Cl.N[C@@H](Cc1ccc(N(CCCl)CCCl)cc1)C(=O)OCCC(F)(F)C(F)(F)C(F)(F)C(F)(F)C(F)(F)C(F)(F)F [Compound 3d]
extent of ester cleavage in oligonucleotide adducts (ESI-MS) [2]: more significant
IC50 [3, 8]: 2.1 ± 0.2 µM
IC50 [3, 9]: 2.3 ± 0.1 µM
IC50 [1, 6]: 3.3 ± 0.2 µM
IC50 [1, 7]: 5.9 ± 0.3 µM
fold increase in cytotoxicity (lower IC50) compared to melphalan [1]: 5 to 10 fold and 10 fold
cytotoxicity at the elevated temperature relative to 37 °C [1]: approximately twice as cytotoxic
cytotoxicity to healthy RPE1 cells relative to tumoral Y79 cells (selectivity) [4]: more than an order of magnitude less cytotoxic
IC50 [4, 10]: 31.5 ± 2.7 µM
IC50 [4, 11]: 39.3 ± 5 µM

Cl.N[C@@H](Cc1ccc(N(CCCl)CCCl)cc1)C(=O)OCCC(F)(F)C(F)(F)C(F)(F)C(F)(F)C(F)(F)C(F)(F)C(F)(F)C(F)(F)F [Compound 3e]
extent of ester cleavage in oligonucleotide adducts (ESI-MS) [2]: more significant
IC50 [3, 8]: 4.4 ± 0.3 µM
IC50 [3, 9]: 4.5 ± 0.1 µM
IC50 [1, 6]: 6.6 ± 0.4 µM
IC50 [1, 7]: 13 ± 0.4 µM
fold increase in cytotoxicity (lower IC50) compared to melphalan [1]: 5 to 10 fold and 5 fold
cytotoxicity at the elevated temperature relative to 37 °C [1]: approximately twice as cytotoxic
cytotoxicity to healthy RPE1 cells relative to tumoral Y79 cells (selectivity) [4]: more than an order of magnitude less cytotoxic
IC50 [4, 10]: 42.3 ± 6 µM
IC50 [4, 11]: 52.8 ± 9.3 µM

Cl.N[C@@H](Cc1ccc(N(CCCl)CCCl)cc1)C(=O)OCCC(F)(F)C(F)(F)C(F)(F)C(F)(F)C(F)(F)C(F)(F)C(F)(F)C(F)(F)C(F)(F)C(F)(F)F [Compound 3f]
adduct formation with the dsDNA oligonucleotide (ESI-MS) [2]: no adducts were observed
IC50 [1, 6]: 183 ± 20 µM
IC50 [1, 7]: > 200 µM

N[C@@H](Cc1ccc(N(CCCl)CCCl)cc1)C(=O)O [Melphalan]
adduct formation with the dsDNA oligonucleotide (ESI-MS) [2]: formed adducts with both strands of the oligonucleotides
IC50 [1, 6]: 26 ± 2 µM
IC50 [1, 7]: 59 ± 5 µM

CCOC(=O)C(N)Cc1ccc(N(CCCl)CCCl)cc1 (stereo not shown) [ethyl ester derivative of melphalan]
IC50 [5]: 1.2 ± 0.3 µM
fold increase in cytotoxicity compared to melphalan [5]: 8 fold
